Experimental data taken from patent US12384743B2, “Compositions comprising (R)-2-amino-3-phenylpropyl carbamate and uses thereof” (priority 2016, dated 2025).
Counter-ions that a name gives are not always drawn. Like-named read-outs stand apart in the source and are kept apart here.

Experiments:
[1] = Humidity stressing of Form A; format: physicochemical; conditions: approximately 75% humidity (RH)
[2] = format: physicochemical; conditions: for relative humidity at which conversion to Form B occurred: slurrying Form A only
Procedure: Slurry experiments were performed with various water activities starting with Form A only and also by conducting interconversion slurries or pre-saturating solutions with APC and then adding equal amounts of Form A and Form B. When slurrying Form A only, conversion to Form B at room temperature occurred at 67% RH, and 40% RH at 2-8° C. With the interconversion slurries, Form B was isolated from all experiments with relative humidities ranging from 50% to 70%.

[3] = Drying of Form B in scaled-up method (low vacuum); format: physicochemical; conditions: oven temperature 20-25° C., low vacuum (700-750 mbar)
Procedure: An additional scaled-up method for producing Form B was developed that reduced reaction time and volume and increased yield. Isolation of Form B from Form A was carried out in 5 volumes of solvent (acetonitrile:water (95%:5% v:v)) at about 20° C. for about 1-2 hours. The drying process was carried out at an oven temperature of 20-25° C. and low vacuum (700-750 mbar). Under these drying conditions Form B was stable and no detectable Form A was formed. This method was used on a 4.5 kg batch of APC and produced Form B with a yield of 93.7%.

[4] = Drying studies on Form B (temperature, vacuum, milling, desiccant, low RH stressing); format: physicochemical
Procedure: Drying studies were performed on Form B. The drying experiments were performed under various temperatures with and without vacuum. Additionally, milling, storage under desiccant, and low RH stressing were conducted.

[5] = Aqueous solubility of Form B in different pH buffers; format: physicochemical; conditions: thermodynamic from solid

SMILES	solid form after humidity stressing [1]	relative humidity at which conversion to Form B occurred ([2]; 2-8° C.) [% RH]	relative humidity at which conversion to Form B occurred ([2]; room temperature) [% RH]	stability of solid form on drying [3]	stability of solid form (overall result of the drying studies) ([4]; low RH or elevated temperature)	solid form after drying/stress ([4]; vacuum drying at 50° C. 1 day, heating at 80° C. 1 day, milling)	solid form after drying/stress ([4]; vacuum drying at ambient temperature 1 day, heating at 40° C. 1 day, storage under desiccant 1 day, stressing at 33% RH 2 weeks)	solubility ([5]; aqueous buffer, Buffer solution pH 4.5, pH (buffer) measured starting conditions 4.5, pH (buffered sample) 5.7, read-out: Solubility (mg/ml mean of triplicates)) [mg/mL]	solubility ([5]; aqueous buffer, Buffer solution pH 5.5, pH (buffer) measured starting conditions 5.5, pH (buffered sample) 6.0, read-out: Solubility (mg/ml mean of triplicates)) [mg/mL]	solubility ([5]; aqueous buffer, Buffer solution pH 7.4, pH (buffer) measured starting conditions 7.4, pH (buffered sample) 6.4, read-out: Solubility (mg/ml mean of triplicates)) [mg/mL]	solubility ([5]; aqueous buffers of different pH, aqueous buffer, different pH buffers, read-out: aqueous solubility) [mg/mL]	solubility ([5]; buffer solution, aqueous buffer, pH 1-6.5, read-out: solubility in buffer solution) [mg/mL]	solubility ([5]; simulated gastric fluid, Buffer solution pH 1.2, pH (buffer) measured starting conditions 1.2, pH (buffered sample) 4.5, read-out: Solubility (mg/ml mean of triplicates)) [mg/mL]	relative stability of solid forms ([2]; interconversion slurry of Form A and Form B, approximately 50% RH or greater at room temperature)
NC(=O)OC[C@H](N)Cc1ccccc1 [Form A, (R)-2-amino-3-phenylpropyl carbamate hydrochloride]	Partial conversion to Form B	40	67											
NC(=O)OC[C@H](N)Cc1ccccc1 [Form B, (R)-2-amino-3-phenylpropyl carbamate hydrochloride]				stable	not stable	Full dehydration to Form A	Partial conversion to Form A	733	742	746	> 700	700 to 750	732	more stable form
